This note sets out measurements from PubChem BioAssay (NCI).

Assay in all cases: NCI-60 cell line screen, 48 h
The test system of assay [1] is LXFL 529 NSCLC.
The subject of assay [2] is HCT-15 colon.
In assay [3] the test system is DLD-1 colon.
The test system of assay [4] is M19-MEL melanoma.
Assay [5] has as its system DMS 273 small cell lung.
The subject of assay [6] is RXF 393 renal.
Assay [7] relates to HT29 colon.
In assay [8] the test system is KM20L2 colon.
In assay [9] the test system is UACC-62 melanoma.
The subject of assay [10] is SK-OV-3 ovarian.
The test system of assay [11] is DMS 114 small cell lung.
Assay [12] has as its system SNB-78 CNS.
The test system of assay [13] is A498 renal.

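Compound exposure: 48 hours, 5 concentrations, 96-well plates. TGI: total growth inhibition.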

As for `CC(C)(C)c1cc2c3c(c1)C(C(F)(F)F)(C(F)(F)F)O[Te]3(C)OC2(C(F)(F)F)C(F)(F)F`, the TGI in [1], in assay [2], in assay [3], in [4], in assay [5] and in assay [6] was > 100 µM throughout. Also, the TGI in [7], in assay [8], in assay [9], in assay [10], in [11] and in assay [12] was > 100 µM in each case.

With `CC(=O)OC(CCC1(C)OC1COc1ccc(CCNC(=O)c2ccccc2)cc1)C(C)(C)OC(C)=O` (stereo unspecified), the TGI in assay [1] is 34.6 µM; in assay [2], > 100 µM; in assay [3], > 100 µM; in [4], 69 µM; in assay [5], 24.8 µM; in assay [6], 43.8 µM. In addition, the TGI is 44 µM in assay [7]; > 100 µM in assay [8]; 31.4 µM in assay [9]; > 100 µM in [10]; 15.8 µM in assay [11]; > 100 µM in assay [12].

As to `CC1(C)Cc2cc(C(=O)O)c3c(c2C1=O)COCC3`, the TGI in [1], in assay [2], in assay [3], in assay [4], in assay [5] and in assay [6] was > 100 µM each time. Further, the TGI in assay [7], in assay [8], in assay [13], in [9], in [10] and in [11] was > 100 µM each time. Also, the TGI in assay [12] was > 100 µM.

Consider `CCc1cccc(C(C)C)c1N1C(=O)C(=O)C(c2nc3ccccc3s2)C(=O)C1=O`, for which the TGI in [1], in [2], in assay [3], in [4], in assay [5] and in [6] was > 50 µM in each case. For the same molecule, the TGI in assay [7], in assay [8], in assay [13], in assay [9], in assay [10] and in assay [11] was > 50 µM each time. Besides, the TGI in assay [12] is > 50 µM.

`CC1C[C@@H]2C(=O)NC(=O)[C@@H]2c2c1c1ccccc1n2C` (stereo partly specified): the TGI in assay [1], in assay [2], in assay [3], in [4], in assay [5] and in assay [6] was > 100 µM throughout. Besides, the TGI in assay [7], in assay [8], in [13], in [9], in assay [10] and in assay [11] was > 100 µM in each case. Moreover, the TGI in assay [12] is > 100 µM.

`C=C(Br)N(CC)CC`: the TGI in [1], in [2], in assay [3], in assay [4], in [5] and in assay [6] was > 100 µM each time. In addition, the TGI in assay [7], in assay [8], in assay [13], in [9], in assay [10] and in assay [11] was > 100 µM throughout. In addition, the TGI in [12] was > 100 µM.

On to `CCC1CN2CCc3c([nH]c4ccccc34)C2C[C@@H]1CC(=O)N(C)C` (stereo partly specified), for which the TGI in assay [1], in assay [2], in assay [3], in assay [4], in [5] and in [6] was > 100 µM each time. The TGI in assay [7], in assay [8], in assay [13], in assay [10], in assay [11] and in assay [12] was > 100 µM throughout.

`COC(=O)CCC(=O)CC(=O)C(=O)Nc1c(Cl)cc([N+](=O)[O-])cc1Cl`: the TGI in assay [1], in [2], in [3], in [4], in assay [5] and in assay [6] was > 100 µM each time. The TGI in assay [7] was > 100 µM; in assay [8], > 100 µM; in [13] it was > 100 µM; in assay [9], > 100 µM; in assay [10] it was > 100 µM; in [11], 77.9 µM. Also, the TGI in assay [12] is > 100 µM.

In the case of `O=C1C2C3C=CC(C2C(=O)N1COP(=O)(O)O)C1C2C(=O)N(COP(=O)(O)O)C(=O)C2C31` (stereo unspecified), the TGI in assay [1] was > 100 µM; in assay [2], > 57.9 µM; in assay [3], > 75.9 µM; in [4], > 100 µM; in [5], > 56.3 µM; in [6] it was > 100 µM. The TGI in assay [7] is > 100 µM; in assay [8], > 100 µM; in assay [13] it was > 100 µM; in assay [9], > 100 µM; in assay [10], > 100 µM; in assay [11], > 58.8 µM. Besides, in assay [12], the TGI is > 100 µM.

`O=C(NP(=O)(N1CC1)N1CC1)c1cc(I)ccc1I`: the TGI was > 100 µM in [1]; > 100 µM in [2]; > 100 µM in assay [3]; > 100 µM in assay [4]; > 100 µM in [5]; > 87.8 µM in [6]. The TGI in assay [7] was > 100 µM; in assay [8] it was > 100 µM; in assay [13] it was > 100 µM; in assay [9], 57.6 µM; in assay [10] it was 89.9 µM; in assay [11], 99.2 µM. Further, the TGI in assay [12] is > 100 µM.

Regarding `O=C(CCC(=O)C(C(=O)c1ccccc1)c1ccccc1)Nc1cccc(C(F)(F)F)c1` (stereo unspecified), the TGI in assay [1], in [2], in assay [3], in assay [4], in [5] and in [7] was > 100 µM throughout. For the same molecule, the TGI in [8], in assay [13], in assay [9], in assay [10], in assay [11] and in [12] was > 100 µM throughout.

As to `COc1cc2c3c(c1OC)-c1c(ccc4c1OCO4)CC3(C#N)N(C(=O)c1ccccc1)CC2` (stereo unspecified), the TGI in [1], in assay [2], in assay [3], in assay [4], in [5] and in assay [6] was > 100 µM in each case. Also, the TGI in [7], in assay [8], in [13], in assay [9], in [10] and in [11] was > 100 µM in each case. In assay [12], the TGI was > 100 µM.

As to `COc1cc(OC)c(C2CC=Cc3c(OC)cc(OC)c(OC)c32)cc1OC` (stereo unspecified), the TGI in assay [1], in assay [2], in assay [3], in assay [4], in assay [5] and in assay [6] was > 100 µM in each case. For the same molecule, the TGI in assay [7], in assay [8], in [13], in assay [9], in [10] and in assay [11] was > 100 µM in each case. Besides, in assay [12], the TGI is > 100 µM.

`NCCCNCCCCN(CCCN)/[N+]([O-])=N\O`: the TGI in assay [1], in assay [2], in [3], in assay [4], in [5] and in [6] was > 100 µM in each case. In addition, the TGI in assay [7], in [8], in [9], in assay [11] and in assay [12] was > 100 µM throughout.
